In PubChem BioAssay AID330 (DTP/NCI, 2004) one finds T/C data, which are given here for 25 compounds.

For this experiment, the system named is P388 leukemia ip, CD2F1 mice, survival T/C. As to the kind of experiment: NCI In Vivo Anticancer Drug Screen. Data for tumor model P388 Leukemia (intraperitoneal) in CD2F1 (CDF1) mice. The following applies: endpoint: median survival time, higher = longer survival. In a few lines: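 Mice carrying the transplanted tumor received test compound or vehicle. Survival was recorded in each group, and the value is the treated-group measurement divided by that of the vehicle-treated control group.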

Setting [1] is: dose: 60.0 mg/kg/injection, schedule: Q01DX005 (ip), vehicle: saline with Tween-80.
Where [2] appears, read: dose: 120.0 mg/kg/injection, schedule: Q01DX005 (ip), vehicle: saline with Tween-80.
The mark [3] stands for this setting: dose: 240.0 mg/kg/injection, schedule: Q01DX005 (ip), vehicle: saline with Tween-80.
Setting [4] is: dose: 50.0 mg/kg/injection, schedule: Q01DX005 (ip), vehicle: saline with Tween-80.
Setting [5] is: dose: 100.0 mg/kg/injection, schedule: Q01DX005 (ip), vehicle: saline with Tween-80.
Where [6] appears, read: dose: 50.0 mg/kg/injection, schedule: Q01DX009 (ip), vehicle: saline with Tween-80.
[7] abbreviates: dose: 100.0 mg/kg/injection, schedule: Q01DX009 (ip), vehicle: saline with Tween-80.
The mark [8] stands for this setting: dose: 200.0 mg/kg/injection, schedule: Q01DX009 (ip), vehicle: saline with Tween-80.
The mark [9] stands for this setting: dose: 200.0 mg/kg/injection, schedule: Q01DX005 (ip), vehicle: saline with Tween-80.
The mark [10] stands for this setting: dose: 100.0 mg/kg/injection, schedule: Q04DX003 (ip), vehicle: Klucel (hydroxypropylcellulose) (HPC).
The mark [11] stands for this setting: dose: 25.0 mg/kg/injection, schedule: Q01DX009 (ip), vehicle: saline with Tween-80.
[12] abbreviates: dose: 12.5 mg/kg/injection, schedule: Q01DX009 (ip), vehicle: saline with Tween-80.
[13] abbreviates: dose: 50.0 mg/kg/injection, schedule: Q01DX009 (ip), vehicle: saline.
Where [14] appears, read: dose: 100.0 mg/kg/injection, schedule: Q04DX003 (ip), vehicle: saline with Tween-80.
The mark [15] stands for this setting: dose: 200.0 mg/kg/injection, schedule: Q04DX003 (ip), vehicle: saline with Tween-80.
Where [16] appears, read: dose: 400.0 mg/kg/injection, schedule: Q04DX003 (ip), vehicle: saline with Tween-80.

Where “and” joins values, the source holds several entries; their conditions need not be identical. Identical values can stand only once. Inconclusive results and toxic doses are left out.

Take `O=c1[nH]c(=O)c2c([nH]1)oc1ccccc12`: the T/C is 102 % of control under setting [1], 95 % of control under setting [2] and 98 % of control under setting [3].

Consider `CN(C)c1ccc2nc3ccc(=[N+](C)C)c([N+](=O)[O-])c-3sc2c1`, for which the T/C is 105 % of control (dose: 15.0 mg/kg/injection, schedule: Q01DX005 (ip), vehicle: saline); 100 % of control (dose: 30.0 mg/kg/injection, schedule: Q01DX005 (ip), vehicle: saline); 116 % of control under setting [4]; 100 % of control under setting [5].

As for `CC(=N\O)/C(=N\O)C(=O)c1ccccc1`, the T/C under setting [6] is 95 % of control, the T/C under setting [7] is 90 % of control and the T/C under setting [8] was 90 % of control.

Take `Cc1cnc2cc(Cl)ccc2c1SCC(=O)O`: the T/C is, setting by setting: under setting [4], 104 % of control; under setting [5], 108 % of control; under setting [9], 108 % of control.

Consider `Cc1nc(O)c(-c2ccccc2)s1`, for which the T/C is 104 % of control under setting [6], 105 % of control under setting [7] and 92 % of control under setting [8].

For the compound `O=[N+]([O-])c1ccccc1-c1ccc2c(O)c(Cl)c(Cl)c(O)c2n1`, under setting [10], the T/C was 104 % of control.

Regarding `C[N+](C)(C)CN1C(=O)c2ccccc2C1=O`, the T/C runs as follows: (dose: 50.0 mg/kg/injection, schedule: Q04DX003 (ip), vehicle: saline) 100 % of control; (dose: 100.0 mg/kg/injection, schedule: Q04DX003 (ip), vehicle: saline) 104 % of control; (dose: 200.0 mg/kg/injection, schedule: Q04DX003 (ip), vehicle: saline) 95 % of control.

With `NNC(=O)c1ccc(Cl)cc1`, the T/C was 91 % of control under setting [11], 96 % of control under setting [6], 96 % of control under setting [7] and 86 % of control under setting [8].

On to `CC(=O)OC1CC2CCCCC2CC1[N+](C)(C)C` (configuration not stated), for which the T/C under setting [12] was 108 % of control; the T/C under setting [11] is 112 % of control; the T/C under setting [6] is 103 % of control and 94 % of control; the T/C under setting [13] was 105 % of control.

Take `COc1c(C(C)C)cc2c(c1OC)C13CCCC(C)(C)C1C(OC3=O)C2NC(=O)CCN(C)C` (configuration not stated): the T/C (dose: 25.0 mg/kg/injection, schedule: Q01DX009 (ip), vehicle: Klucel (hydroxypropylcellulose) (HPC)) is 97 % of control; the T/C (dose: 50.0 mg/kg/injection, schedule: Q01DX009 (ip), vehicle: Klucel (hydroxypropylcellulose) (HPC)) was 98 % of control; the T/C (dose: 100.0 mg/kg/injection, schedule: Q01DX009 (ip), vehicle: Klucel (hydroxypropylcellulose) (HPC)) was 90 % of control.

For the compound `COC(=O)C1(CC(=O)c2ccncc2)NC(=S)NC(=O)C1C#N` (configuration not stated), the T/C was 99 % of control (dose: 60.0 mg/kg/injection, schedule: Q01DX005 (ip), vehicle: saline); 101 % of control (dose: 120.0 mg/kg/injection, schedule: Q01DX005 (ip), vehicle: saline); 94 % of control (dose: 240.0 mg/kg/injection, schedule: Q01DX005 (ip), vehicle: saline).

`CN1OC2(CCCCC2)n2c(=O)c3ccccc3c(=O)n2C1c1ccccc1` (configuration not stated): the T/C by setting is: under setting [13], 100 % of control; (dose: 100.0 mg/kg/injection, schedule: Q01DX009 (ip), vehicle: saline) 100 % of control; (dose: 200.0 mg/kg/injection, schedule: Q01DX009 (ip), vehicle: saline) 95 % of control.

As to `CC1=CCC2C(C)(C)CCCC2(C)C1COC1OC(OCC2C(C)=CCC3C(C)(C)CCCC23C)C2C1=CCC1C(C)(C)CCCC21C` (configuration not stated), the T/C reads like this: (dose: 15.0 mg/kg/injection, schedule: Q01DX009 (ip), vehicle: Klucel (hydroxypropylcellulose) (HPC)) 96 % of control; (dose: 30.0 mg/kg/injection, schedule: Q01DX009 (ip), vehicle: Klucel (hydroxypropylcellulose) (HPC)) 102 % of control; (dose: 60.0 mg/kg/injection, schedule: Q01DX009 (ip), vehicle: Klucel (hydroxypropylcellulose) (HPC)) 93 % of control; (dose: 120.0 mg/kg/injection, schedule: Q01DX009 (ip), vehicle: Klucel (hydroxypropylcellulose) (HPC)) 94 % of control.

With `c1ccc(Cn2c(-c3ccccc3)c[n+]3ccsc23)cc1`, the T/C is, setting by setting: (dose: 3.12 mg/kg/injection, schedule: Q01DX009 (ip), vehicle: saline with Tween-80) 117 % of control; (dose: 6.25 mg/kg/injection, schedule: Q01DX009 (ip), vehicle: saline with Tween-80) 115 % of control and 94 % of control; under setting [12], 108 % of control and 117 % of control.

Consider `C(=NCCC[Si]12OCCN(CCO1)CCO2)c1ccccc1`, for which the T/C was 105 % of control (dose: 50.0 mg/kg/injection, schedule: Q01DX005 (ip), vehicle: Klucel (hydroxypropylcellulose) (HPC)); 98 % of control (dose: 100.0 mg/kg/injection, schedule: Q01DX005 (ip), vehicle: Klucel (hydroxypropylcellulose) (HPC)); 102 % of control (dose: 200.0 mg/kg/injection, schedule: Q01DX005 (ip), vehicle: Klucel (hydroxypropylcellulose) (HPC)).

As to `CCO/C(C)=C\C(=O)O`, the T/C is, setting by setting: under setting [4], 98 % of control; under setting [5], 97 % of control; under setting [9], 97 % of control.

As for `Cn1cc(/C=C/[N+](=O)[O-])c2ccccc21`, the T/C is 105 % of control under setting [10]; 99 % of control (dose: 200.0 mg/kg/injection, schedule: Q04DX003 (ip), vehicle: Klucel (hydroxypropylcellulose) (HPC)); 100 % of control (dose: 400.0 mg/kg/injection, schedule: Q04DX003 (ip), vehicle: Klucel (hydroxypropylcellulose) (HPC)).

As to `CCCC(O)(CCC)C1=NCCN1`, the T/C is 103 % of control (dose: 12.5 mg/kg/injection, schedule: Q01DX005 (ip), vehicle: saline); 102 % of control (dose: 25.0 mg/kg/injection, schedule: Q01DX005 (ip), vehicle: saline); 99 % of control and 102 % of control (dose: 50.0 mg/kg/injection, schedule: Q01DX005 (ip), vehicle: saline).

Regarding `Cc1cc2c(c(=O)o1)C(C)CC(c1c(O)cc(C)oc1=O)O2` (configuration not stated), the T/C under setting [1] is 114 % of control, the T/C under setting [2] is 108 % of control and the T/C under setting [3] is 103 % of control.

Turning to `Cc1ccc2c(=O)n3cc(CCC#N)cc3c(=O)[nH]c2c1O`, the T/C reads like this: (dose: 100.0 mg/kg/injection, schedule: Q01DX001 (ip), vehicle: Klucel (hydroxypropylcellulose) (HPC)) 99 % of control; (dose: 200.0 mg/kg/injection, schedule: Q01DX001 (ip), vehicle: Klucel (hydroxypropylcellulose) (HPC)) 89 % of control; (dose: 400.0 mg/kg/injection, schedule: Q01DX001 (ip), vehicle: Klucel (hydroxypropylcellulose) (HPC)) 92 % of control.

In the case of `CCCCC/C=C/CCCCCCC1C=CCC1` (configuration not stated), the T/C (dose: 100.0 mg/kg/injection, schedule: Q01DX001 (ip), vehicle: saline) is 101 % of control; the T/C (dose: 200.0 mg/kg/injection, schedule: Q01DX001 (ip), vehicle: saline) was 100 % of control; the T/C (dose: 400.0 mg/kg/injection, schedule: Q01DX001 (ip), vehicle: saline) is 100 % of control.

In the case of `CC(CNC(=O)CCOS(C)(=O)=O)NC(=O)CCOS(C)(=O)=O` (configuration not stated), the T/C runs as follows: (dose: 12.5 mg/kg/injection, schedule: Q04DX003 (ip), vehicle: saline with Tween-80) 100 % of control; (dose: 50.0 mg/kg/injection, schedule: Q04DX003 (ip), vehicle: saline with Tween-80) 154 % of control; under setting [7], 154 % of control; under setting [14], 150 % of control; under setting [8], 177 % of control; under setting [15], 175 % of control. Moreover, the T/C reads like this: (dose: 400.0 mg/kg/injection, schedule: Q01DX009 (ip), vehicle: saline with Tween-80) 90 % of control; under setting [16], 241 % of control.

As to `CN(C)c1nc(OC2C(C(O)CO)OC3OC(C)(C)OC32)nc(N(C)C)n1` (configuration not stated), the T/C is 105 % of control under setting [14], 95 % of control under setting [15] and 92 % of control under setting [16].

Take `CC1(CCl)Nc2ccccc2C(=O)N1c1ccccc1` (configuration not stated): the T/C under setting [6] was 99 % of control, the T/C under setting [7] is 97 % of control and the T/C under setting [8] was 88 % of control.

In the case of `COC1CCC(NS(=O)(=O)c2ccc(N)cc2)[N-]N1.[Ag+]` (configuration not stated), the T/C (dose: 12.5 mg/kg/injection, schedule: Q01DX009 (ip), vehicle: saline) is 93 % of control; the T/C (dose: 25.0 mg/kg/injection, schedule: Q01DX009 (ip), vehicle: saline) is 101 % of control; the T/C under setting [13] was 98 % of control and 109 % of control.
